Reference: patent publication US4988723A, “Benzopyran derivatives and their use as anti-hypertensives” (Fujisawa Pharmaceutical Co., Ltd., priority 1988, dated 1991)

Assays:
[1] = test system: spontaneous hypertensive rats; assay: Effect on spontaneous hypertensive rats (hypotensive activity, mean blood pressure after oral dosing); assay type: in vivo, rat
Protocol: 14 to 17-week-old male spontaneous hypertensive rats with mean arterial blood pressure of about 150 mmHg, weighing 300-375 g, were used. The animals were cannulated in the left femoral artery and the mean blood pressure and heart rate were measured with a pressure-transducer. The drugs were given orally. The animals were deprived of food for about 18 hours before oral dosing. The test drugs were suspended in 0.5% methylcellulose, and given in oral dose of 0.1 mg/kg and 1.0 mg/kg.

[2] = test system: normotensive rats (male Wistar strain); assay: Effect on normotensive rats (hypotensive activity, mean arterial pressure after intravenous dosing); assay type: in vivo, rat; conditions: 1.0 mg/kg intravenously
Protocol: Male Wistar strain rats aged 10-11 weeks, weighing about 250 g were used after going unfed overnight. Under ether anesthesia, polyethylene cannula were inserted in the femoral artery for measuring blood pressure and in the femoral vein for injection of the test compound. About 2 hours after the operation, test compound was given intravenously. Blood pressure was measured at the femoral artery by means of a pressure transducer and recorded as electrically integrated values of mean arterial pressure.

## CC1(C)Oc2ccc(C#N)cc2[C@@H](N2CCSC2=NC#N)[C@@H]1O [(3S,4R)-4-(2-Cyanoiminothiazolidin-3-yl)-3,4-dihydro-3-hydroxy-2,2-dimethyl-2H-1-benzopyran-6-carbonitrile]
[1]; 0.1 mg/kg orally
  Effect max (maximum decrease of blood pressure, mean ratio): 20.7%
  T 1/2 (duration of half of maximum decrease of blood pressure): 2.25 h
[1]; 1.0 mg/kg orally
  Effect max (maximum decrease of blood pressure, mean ratio): 60.0%
  T 1/2 (duration of half of maximum decrease of blood pressure): 3.75 h

## CN1CCN([C@@H]2c3cc(C#N)ccc3OC(C)(C)[C@H]2O)C1=NC#N (relative stereo) [trans-4-(2-Cyanoimino-3-methylimidazolidin-1-yl)-3,4-dihydro-3-hydroxy-2,2-dimethyl-2H-1-benzopyran-6-carbonitrile]
[2]
  Effect Max (maximum decrease of blood pressure, mean ratio): 48.0%
